Source: patent US8680012B2, “4-phenyl-pyrane-3,5-diones,4-phenyl-thiopyrane-3,6-diones and cyclohexanetriones as novel herbicides” (Syngenta Crop Protection LLC, priority 2006, dated 2014)

What was measured:
Type in all cases: in vivo
[1] = system: Digitaria sanguinalis (DIGSA); assay: Example A pre-emergence herbicidal activity, glasshouse pot test; details: 480 h, evaluated 20 days after spraying, read-out: Pre-emergence activity DIGSA (100=total damage to plant; 0=no damage to plant); for pest or weed control at 250 g/ha: rate 250 g/ha; for pest or weed control at 500 g/ha: rate 500 g/ha
Procedure: (§1) Seeds of a variety of test species were sown in standard soil in pots. After cultivation for one day (pre-emergence) or after 10 days cultivation (post-emergence) under controlled conditions in a glasshouse, the plants were sprayed with an aqueous spray solution derived from the formulation of the technical active ingredient in 0.6 ml acetone and 45 ml formulation solution containing 10.6% Emulsogen EL (Registry number 61791-12-6), 42.2% N-methylpyrrolidone, 42.2% dipropylene glycol monomethyl ether (Registry number 34590-94-8) and 0.2% X-77 (Registry number 11097-66-8). The test plants were then grown in a greenhouse under optimum conditions until, 15 days later for post-emergence and 20 days for pre-emergence, the test was evaluated (100=total damage to plant; 0=no damage to plant).
(§2) Alopecurus myosuroides (ALOMY), Avena fatua (AVEFA), Lolium perenne (LOLPE), Setaria faberi (SETFA), Digitaria sanguinalis (DIGSA), Echinochloa crus-galli (ECHCG)

Avena fatua (AVEFA) [2] = assay: as above; details: 480 h, evaluated 20 days after spraying, read-out: Pre-emergence activity AVEFA (100=total damage to plant; 0=no damage to plant); for pest or weed control at 250 g/ha: rate 250 g/ha; for pest or weed control at 500 g/ha: rate 500 g/ha
Procedure: as §1, §2

Lolium perenne (LOLPE) [3] = assay: as above; details: 480 h, evaluated 20 days after spraying, read-out: Pre-emergence activity LOLPE (100=total damage to plant; 0=no damage to plant); for pest or weed control at 250 g/ha: rate 250 g/ha; for pest or weed control at 500 g/ha: rate 500 g/ha
Procedure: as §1, §2

[4] = system: Alopecurus myosuroides (ALOMY); assay: as above; details: 480 h, evaluated 20 days after spraying, read-out: Pre-emergence activity ALOMY (100=total damage to plant; 0=no damage to plant); for pest or weed control at 250 g/ha: rate 250 g/ha; for pest or weed control at 500 g/ha: rate 500 g/ha
Procedure: as §1, §2

[5] = system: Echinochloa crus-galli (ECHCG); assay: as above; details: 480 h, evaluated 20 days after spraying, read-out: Pre-emergence activity ECHCG (100=total damage to plant; 0=no damage to plant); for pest or weed control at 250 g/ha: rate 250 g/ha; for pest or weed control at 500 g/ha: rate 500 g/ha
Procedure: as §1, §2

Setaria faberi (SETFA) [6] = assay: as above; details: 480 h, evaluated 20 days after spraying, read-out: Pre-emergence activity SETFA (100=total damage to plant; 0=no damage to plant); for pest or weed control at 250 g/ha: rate 250 g/ha; for pest or weed control at 500 g/ha: rate 500 g/ha
Procedure: as §1, §2

[7] = system: Digitaria sanguinalis (DIGSA); assay: Example A post-emergence herbicidal activity, glasshouse pot test; details: 360 h, rate 125 g/ha, evaluated 15 days after spraying, read-out: Post-emergence activity DIGSA (100=total damage to plant; 0=no damage to plant)
Procedure: as §1, §2

Avena fatua (AVEFA) [8] = assay: as above; details: 360 h, rate 125 g/ha, evaluated 15 days after spraying, read-out: Post-emergence activity AVEFA (100=total damage to plant; 0=no damage to plant)
Procedure: as §1, §2

Lolium perenne (LOLPE) [9] = assay: as above; details: 360 h, rate 125 g/ha, evaluated 15 days after spraying, read-out: Post-emergence activity LOLPE (100=total damage to plant; 0=no damage to plant)
Procedure: as §1, §2

[10] = system: Alopecurus myosuroides (ALOMY); assay: as above; details: 360 h, rate 125 g/ha, evaluated 15 days after spraying, read-out: Post-emergence activity ALOMY (100=total damage to plant; 0=no damage to plant)
Procedure: as §1, §2

[11] = system: Echinochloa crus-galli (ECHCG); assay: as above; details: 360 h, rate 125 g/ha, evaluated 15 days after spraying, read-out: Post-emergence activity ECHCG (100=total damage to plant; 0=no damage to plant)
Procedure: as §1, §2

Setaria faberi (SETFA) [12] = assay: as above; details: 360 h, rate 125 g/ha, evaluated 15 days after spraying, read-out: Post-emergence activity SETFA (100=total damage to plant; 0=no damage to plant)
Procedure: as §1, §2

| SMILES | pest or weed control at 250 g/ha [1] | pest or weed control at 250 g/ha (Avena fatua (AVEFA) [2]) | pest or weed control at 250 g/ha (Lolium perenne (LOLPE) [3]) | pest or weed control at 250 g/ha [4] | pest or weed control at 250 g/ha [5] | pest or weed control at 250 g/ha (Setaria faberi (SETFA) [6]) | pest or weed control at 125 g/ha [7] | pest or weed control at 125 g/ha (Avena fatua (AVEFA) [8]) | pest or weed control at 125 g/ha (Lolium perenne (LOLPE) [9]) | pest or weed control at 125 g/ha [10] | pest or weed control at 125 g/ha [11] | pest or weed control at 125 g/ha (Setaria faberi (SETFA) [12]) | pest or weed control at 500 g/ha [1] | pest or weed control at 500 g/ha (Avena fatua (AVEFA) [2]) | pest or weed control at 500 g/ha (Lolium perenne (LOLPE) [3]) | pest or weed control at 500 g/ha [4] | pest or weed control at 500 g/ha [5] | pest or weed control at 500 g/ha (Setaria faberi (SETFA) [6]) |
| --- | --- | --- | --- | --- | --- | --- | --- | --- | --- | --- | --- | --- | --- | --- | --- | --- | --- | --- |
| Cc1cc(-c2ccc(C)c(C3=C(O)C(C)(C)OC(C)(C)C3=O)c2)ccc1Cl [Compound A-53] | 60% | 0% | 0% | 10% | 10% | 10% | 50% | 10% | 10% | 30% | 90% | 0% | – | – | – | – | – | – |
| CCc1ccc(-c2ccc(Cl)cc2Cl)cc1C1=C(O)C(C)(C)OC(C)(C)C1=O [Compound A-45] | 100% | 50% | 80% | 50% | 70% | 90% | 100% | 70% | 70% | 20% | 100% | 80% | – | – | – | – | – | – |
| CCc1ccc(-c2ccc(Cl)cc2)cc1C1=C(O)C(C)(CC)OC(C)(CC)C1=O (stereo not drawn) [Compound A-35] | 80% | 70% | 80% | 70% | 100% | 100% | 80% | 50% | 70% | 80% | 100% | 80% | – | – | – | – | – | – |
| Cc1ccc(-c2ccc(Cl)cc2)cc1C1=C(O)C(C)(C)OC(C)(C)C1=O [Compound A-5] | – | – | – | – | – | – | 100% | 70% | 70% | 70% | 100% | 80% | 100% | 50% | 50% | 60% | 100% | 100% |
| Cc1ccc(-c2ccc(Cl)cc2C)cc1C1=C(O)C(C)(C)OC(C)(C)C1=O [Compound A-51] | 50% | 0% | 40% | 0% | 50% | 10% | 60% | 20% | 0% | 10% | 80% | 40% | – | – | – | – | – | – |
| CCc1ccc(-c2ccc(Cl)c(Cl)c2)cc1C1=C(O)C(C)(C)OC(C)(C)C1=O [Compound A-42] | 100% | 30% | 50% | 100% | 80% | 100% | 100% | 90% | 70% | 80% | 100% | 100% | – | – | – | – | – | – |
| CCc1ccc(-c2ccc(Cl)cc2)cc1C1=C(O)C(C)(C)OC(C)(CC)C1=O (single isomer, unassigned) [Compound A-34] | 100% | 50% | 100% | 60% | 100% | 100% | 90% | 20% | 80% | 70% | 100% | 90% | – | – | – | – | – | – |
| CCc1ccc(-c2ccc(Cl)cc2)cc1C1=C(O)C(C)(C)S(=O)(=O)C(C)(C)C1=O [Compound C-3] | 90% | 80% | 10% | 60% | 70% | 60% | 100% | 80% | 50% | 70% | 100% | 90% | – | – | – | – | – | – |
| CCc1ccc(-c2ccc(Cl)cc2)cc1C1=C(O)C(C)(C)C(=O)C(C)(C)C1=O [Compound B-1] | – | – | – | – | – | – | 100% | 30% | 80% | 30% | 100% | 90% | 100% | 60% | 60% | 40% | 100% | 100% |
| Cc1ccc(-c2ccc(Cl)c(C(F)(F)F)c2)cc1C1=C(O)C(C)(C)OC(C)(C)C1=O [Compound A-52] | 100% | 0% | 10% | 0% | 70% | 80% | 70% | 70% | 30% | 90% | 90% | 60% | – | – | – | – | – | – |
| CCCCC(=O)OC1=C(c2cc(-c3ccc(Cl)cc3)ccc2CC)C(=O)C(C)(C)OC1(C)C [Compound D-2] | – | – | – | – | – | – | 90% | 10% | 20% | 20% | 90% | 90% | 100% | 60% | 80% | 30% | 80% | 100% |
| CCc1ccc(-c2ccc(Cl)cc2)cc1C1=C(O)COCC1=O [Compound A-2] | – | – | – | – | – | – | 50% | 20% | 0% | 20% | 80% | 80% | 10% | 50% | 60% | 50% | 100% | 70% |
